What all share (assay type): cell-based
One assay concerns the target T1, APOL1 G2 (Homo sapiens, UniProt O14791, DEL388-389).
T1 construct: expressed in transfected cells; host or cells: HEK293 T-REx clonal line stably expressing GCaMP6f (HEK T-REx/GCaMP6f/APOL1 G2 K6.3), doxycycline induced
T1 sequence (O14791 with tags, fused parts or gaps DEL388-389): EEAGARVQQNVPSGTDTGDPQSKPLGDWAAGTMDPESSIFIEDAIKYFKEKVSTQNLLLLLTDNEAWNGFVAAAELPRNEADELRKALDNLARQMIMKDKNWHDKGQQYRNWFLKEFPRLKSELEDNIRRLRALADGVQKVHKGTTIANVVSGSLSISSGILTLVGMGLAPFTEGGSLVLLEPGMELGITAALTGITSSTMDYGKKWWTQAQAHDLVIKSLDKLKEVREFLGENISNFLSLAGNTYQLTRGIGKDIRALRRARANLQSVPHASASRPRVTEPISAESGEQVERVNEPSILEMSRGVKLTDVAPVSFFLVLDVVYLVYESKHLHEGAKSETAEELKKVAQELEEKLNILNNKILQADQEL
The assay can be described thus: APOL1-mediated calcium transport (calcium influx) assay, HEK T-REx/GCaMP6f/APOL1 G2 K6.3 cells, FLIPR TETRA. The conditions noted are these: prevention of calcium influx; geometric mean of at least 2 assay runs; † = average of a technical replicate from a single assay run. As to the method: A HEK293 clonal cell line was generated to stably express GCaMP6f, a genetically encoded calcium indicator, and inducibly express APOL1 G2 (HEK T-REx/GCaMP6f/APOL1 G2 K6.3). Cells were maintained in the following standard complete medium: DMEM with 4.5 g/L glucose and sodium pyruvate (BioWhittaker, Lonza, BE12-614F), supplemented with 10% FBS Performance Plus (Gibco, 16000044), 1% penicillin-streptomycin (BioWhittaker, DE17-602E), 2 mM ultraglutamine-1 (BioWhittaker cat. BE 17-605/U1), 50 μg/mL Zeocin (InvivoGen, ant-zn), 2.5 μg/mL Blasticidin (InvivoGen, ant-bl-5), and 25 μg/mL Hygromycin (InvivoGen, ant-hg). Standard propagation conditions consisted of plating 9×10^6, 4×10^6, 2×10^6 cells in a T225 flasks to be processed after 2, 3, or 4 days, respectively.
A source plate was generated containing 20 serially diluted compounds in DMSO (duplicate 8-point dose response). Next, 0.8 μL of compounds were transferred from the source plate to a destination plate prefilled with 79.2 μL of Ca^2+ free Tyrode's buffer (130 mM NaCl, 5 mM KCl, 1 mM MgCl2, 5 mM NaHCO3, 20 mM HEPES at pH 7.4). The destination plate was placed on a plate shaker (5 seconds at 2000 rpm) to mix. […] All transfer and mixing steps were conducted with an CyBi®-Well dispenser.
Cells were split by gently washing with DPBS (Euroclone, ECB4004L), followed by a 5-minute incubation (humidified, 37° C. with 5% CO2) with trypsin-EDTA solution (Euroclone, ECB3052D). Detached cells were diluted with standard complete medium without selective agents, counted, and plated in a 384 MTP microplate (GR4332CPL, Twin Helix) (10,000 cells/well in 25 μl/well) using a MATRIX WellMate dispenser. Plates were placed into a humidified incubator (37° C. with 5% CO2) overnight. The following day, 20 μL of doxycycline (Sigma, D9891) at 20 ng/mL in standard complete medium was added to cells with a CyBi® Drop dispenser to induce APOL1 G2 expression. After a 6-hour incubation (humidified, 37° C. with 5% CO2), cells were washed 3 times with Ca^2+ free Tyrode's Buffer (130 mM NaCl, 5 mM KCl, 1 mM MgCl2, 5 mM NaHCO3, 20 mM HEPES at pH 7.4) using a BIOTEK Microplate washer, such that 10 μL of buffer remained in each well after the final wash. Assay plates were then stored at room temperature for 10 minutes. Next, 10 μL of diluted compounds were transferred to the assay plate from the 2× compound plate using a CyBi®-Well dispenser. Compound incubation was then carried out at room temperature for 10 minutes. The assay plate was transferred to the FLIPR^TETRA and 20 μL of 10 mM Ca^2+ (final concentration=5 mM) Tyrode's buffer was injected.
Unless otherwise specified, AC50 and values are reported as the geometric mean of at least 2 assay runs on separate days. Each run represents the average of a technical replicate, where each compound was assayed twice in the same plate. A superscript t symbol indicates a value from the average of a technical replicate from a single assay run, where each compound was assayed twice in the same plate.
The AC50 values in Table 39 below reflect the compound's ability to prevent calcium influx by inhibiting APOL1. […] Compounds in Table 39 are referred to by the corresponding Compound Number in Table 1, which is also referred to in the synthetic examples. When one or more of the numbered compounds are identified by stereochemistry (for example, (R)- or (S)-), the specific stereoisomer for which data is provided in Table 39 may be identified by the elution order of such compound as described in the synthetic examples. For example, Compounds 39 and 40 are associated with Step 5 of Example 13, where Compound 39 is the first eluting enantiomer, and Compound 40 is the second eluting enantiomer in the chiral separation of Compound 38. For Table 39 below, n/a represents “not available”.

In assay [1] the test system is HEK293 cells overexpressing APOL1 G2. The assay is described as follows: APOL1 G2 HEK293 cell rescue assay (reversal of cell death caused by overexpression of APOL1). The conditions noted are these: geometric mean of at least 2 assay runs, † = single assay run. As to the method: Unless otherwise specified, EC50 values are reported as the geometric mean of at least 2 assay runs on separate days. Each run represents the average of a technical replicate, where each compound was assayed twice in the same plate. A superscript t symbol indicates a value from the average of a technical replicate from a single assay run, where each compound was assayed twice in the same plate. Compounds in Table 40 are referred to by the corresponding Compound Number in Table 1, which is also referred to in the synthetic examples. When one or more of the numbered compounds are identified by stereochemistry (for example, (R)- or (S)-), the specific stereoisomer for which data is provided in Table 40 may be identified by the elution order of such compound as described in the synthetic examples. Absolute stereochemistry of such compounds may be identified by methods known in the art. For Table 40 below, n/a represents “not available”.
Rescue EC50 values reported in Table 40 below represent the half-maximal effective concentration for reversal of cell death caused by overexpression of APOL1.

Assay [2] deals with HEK293 clonal cell line overexpressing APOL1 G1. The assay can be described thus: APOL1 G1 HEK293 cell rescue assay (Example B3). The conditions noted are these: geometric mean of at least 2 runs, † = single run, ¥ = concentration at 50% rescue estimated (no sigmoidal curve). As to the method:
Compounds were also assayed in a HEK293 clonal cell line overexpressing APOL1 G1 by a method similar to that shown in Example B2 above.
Unless otherwise specified, EC50 values are reported as the geometric mean of at least 2 assay runs on separate days. Each run represents the average of a technical replicate, where each compound was assayed twice in the same plate. A superscript † symbol indicates a value from the average of a technical replicate from a single assay run, where each compound was assayed twice in the same plate. A ¥ symbol represents compound concentration at 50% rescue estimated due to lack of sigmoidal curve preventing curve fitting. Compounds in Table 41 are referred to by the corresponding Compound Number in Table 1, which is also referred to in the synthetic examples. When one or more of the numbered compounds are identified by stereochemistry (for example, (R)- or (S)-), the specific stereoisomer for which data is provided in Table 41 may be identified by the elution order of such compound as described in the synthetic examples. Absolute stereochemistry of such compounds may be identified by methods known in the art. For Table 41 below, n/a represents “not available”.
Rescue EC50 values reported in Table 41 below represent the half-maximal effective concentration for reversal of cell death caused by overexpression of APOL1.

Where [3] appears, read: Homo sapiens, HEK293, HEK293 overexpressing APOL1 G2.
Setting [4] is: Homo sapiens, HEK293, HEK293 clonal line overexpressing APOL1 G1.
Where [5] appears, read: HEK293 clonal line overexpressing APOL1 G1.

In general, AC50 refers to the concentration giving half of the maximal activity seen. Broadly, the EC50 is the midpoint of the concentration-response curve. As for `CC(COc1ccc(S(C)(=O)=O)cc1)N1CCC2(CC1)C(=O)N(C1CC(O)C1)c1ccc(Cl)cc12` (mixture of isomers) [Compound 205, 5-chloro-1′-[1-(4-methanesulfonylphenoxy)propan-2-yl]-1-[3-hydroxycyclobutyl]-1,2-dihydrospiro[indole-3,4′-piperidin]-2-one], the AC50 on APOL1 G2 was found to be 1220 nM. Besides, the concentration for a half-maximal effect (EC50) in assay [1] (setting [3]) was 472 nM; in assay [2] (setting [4]) it was 1760 nM.
For `C[C@@H](CN1CCC2(CC1)C(=O)Nc1ccc(Cl)cc12)Oc1ccc(S(C)(=O)=O)cc1` (single isomer, unassigned) [Compound 11], the AC50 on APOL1 G2 stood at 1050 nM. For the same compound, the EC50 in assay [1] (setting [3]) was 1700 nM; in assay [2] (setting [4]), 2300 nM.
For `CC(c1ccc(OCCN2CCC3(CC2)C(=O)Nc2ccc(Cl)cc23)cc1)S(C)(=O)=O` (single isomer, unassigned) [Compound 40, 5-chloro-1′-(2-{4-[(1R) or (1S)-1-methanesulfonylethyl]phenoxy}ethyl)-1,2-dihydrospiro[indole-3,4′-piperidin]-2-one], at APOL1 G2, the AC50 turned out to be 657 nM. Further, the EC50 was 72 nM in assay [1] (HEK293 overexpressing APOL1 G2) and 294 nM in assay [2] (setting [5]).
As to `N#Cc1ccc2c(c1)C1(CCN(CCOc3ccc4c(c3)CCN3C(=O)NCC43)CC1)C(=O)N2` (single isomer, unassigned) [Compound 119, (S) or (R)-2-oxo-1′-[2-({3-oxo-1H,2H,3H,5H,6H,10bH-imidazo[4,3-a]isoquinolin-8-yl}oxy)ethyl]-1,2-dihydrospiro[indole-3,4′-piperidine]-5-carbonitrile], on APOL1 G2, the AC50 was determined as 1010 nM. The concentration for a half-maximal effect (EC50) is 435 nM in assay [1] (setting [3]) and ~3400 nM in assay [2] (setting [4]).
Turning to `N#Cc1ccc2c(c1)C1(CCN(CCOc3ccc4c(c3)CCN3C(=O)CCC43)CC1)C(=O)N2` (single isomer, unassigned) [Compound 125, (S) or (R)-2-oxo-1′-[2-({3-oxo-1H,2H,3H,5H,6H,10bH-pyrrolo[2,1-a]isoquinolin-8-yl}oxy)ethyl]-1,2-dihydrospiro[indole-3,4′-piperidine]-5-carbonitrile], the concentration at half-maximal activity (AC50) on APOL1 G2 was 729 nM. For the same compound, the EC50 in assay [1] (setting [3]) was 355 nM; in assay [2] (setting [5]) it was > 4860 nM.
In the case of `N#Cc1ccc2c(c1)C1(CCN(CCOc3ccc4c(c3)CCN3C(=O)CCC43)CC1)C(=O)N2` (single isomer, unassigned) [Compound 126, (R) or (S)-2-oxo-1′-[2-({3-oxo-1H,2H,3H,5H,6H,10bH-pyrrolo[2,1-a]isoquinolin-8-yl}oxy)ethyl]-1,2-dihydrospiro[indole-3,4′-piperidine]-5-carbonitrile], the half-maximal activity concentration (AC50) at APOL1 G2 was determined as 624 nM. In addition, the EC50 is 273 nM in assay [1] (HEK293 overexpressing APOL1 G2) and 1010 nM in assay [2] (setting [5]).
In the case of `CC(COc1ccc2c(c1)CCC(=O)N2C)N1CCC2(CC1)C(=O)Nc1ccc(Cl)cc12` (single isomer, unassigned) [Compound 201, chloro-1′-[(2R) or (2S)-1-[(1-methyl-2-oxo-1,2,3,4-tetrahydroquinolin-6-yl)oxy]propan-2-yl]-1,2-dihydrospiro[indole-3,4′-piperidin]-2-one], the AC50 at APOL1 G2 was 909 nM. The EC50 was 609 nM in assay [1] (HEK293 overexpressing APOL1 G2) and 4920 nM in assay [2] (setting [5]).
As to `C[C@]1(O)C[C@@H](n2c(=O)cc(C(F)(F)F)c3cc(OCCN4CCC5(CC4)C(=O)Nc4ccc(Cl)cc45)cnc32)C1` [Compound 341, 5-chloro-1′-[2-({7-oxo-8-[(cis)-3-hydroxy-3-methylcyclobutyl]-5-(trifluoromethyl)-7,8-dihydro-1,8-naphthyridin-3-yl}oxy)ethyl]-1,2-dihydrospiro[indole-3,4′-piperidin]-2-one], the AC50 on APOL1 G2 is 1060 nM. In addition, in assay [1] (setting [3]), the EC50 amounted to 41.5 nM.
Turning to `C[C@]1(O)C[C@@H](n2c(=O)cc(C(F)(F)F)c3cc(OCCN4CCC5(CC4)C(=O)Nc4ccc(C(F)F)cc45)cnc32)C1` [Compound 342, 5-(difluoromethyl)-1′-[2-({7-oxo-8-[(cis)-3-hydroxy-3-methylcyclobutyl]-5-(trifluoromethyl)-7,8-dihydro-1,8-naphthyridin-3-yl}oxy)ethyl]-1,2-dihydrospiro[indole-3,4′-piperidin]-2-one], the AC50 on APOL1 G2 was determined as 780 nM. In assay [1] (setting [3]), the EC50 is 90.2 nM.
Turning to `C[C@]1(O)C[C@@H](n2cnc3cc(OCCN4CCC5(CC4)C(=O)Nc4ccc(C#N)cc45)cc(F)c32)C1` [Compound 455, 1′-(2-((7-fluoro-1-((cis)-3-hydroxy-3-methylcyclobutyl)-1H-benzo[d]imidazol-5-yl)oxy)ethyl)-2-oxospiro[indoline-3,4′-piperidine]-5-carbonitrile], the AC50 at APOL1 G2 turned out to be 1250 nM. The EC50 in assay [1] (setting [3]) was found to be 75.3 nM.

These data come from patent publication US12344610B2, “APOL1 inhibitors and methods of use” (Maze Therapeutics, Inc., priority 2022, dated 2025).
